# Several values for one entry are separate records, joined by “and”; a condition that tells them apart may be missing. Equal entries are not always repeated. Entries after “also recorded” stand apart in the source; their conditions may differ.
# Tests used:
# FluB-ht PA I38T [1] = target: T1, FluB-ht PA I38T (Influenza B virus, UniProt Q5V8Z9, I38T); type: biochemical, Influenza B (B/Memphis/13/03)
# FluB-ht PA I38T [2] = type: biochemical, Influenza B (B/Memphis/13/03)
# FluB-ht PA I38T [3] = target: T1, FluB-ht PA I38T; type: biochemical, Influenza B (B/Memphis/13/03); remark: listed apart in the source
# FluB-ht PA I38T [4] = target: T1, FluB-ht PA I38T; type: biochemical, Influenza B (B/Memphis/13/03); remark: listed apart in the source
# influenza virus = details: cited from earlier work
# influenza A I38 mutants = details: cited from earlier work
# influenza B I38 mutants = details: cited from earlier work
SMILES,slope of plot of IC50 versus enzyme concentration (FluB-ht PA I38T [1]),"decrease in inhibition (difference in IC50), PA I38T versus WT (FluB-ht PA I38T [2])","increase of Ki^app, PA I38T with respect to WT (FluB-ht PA I38T [2]) [fold]",inhibition of endonuclease activity by order of addition (FluB-ht PA I38T [3]),BXA concentration at which an effect of preincubation is observed (FluB-ht PA I38T [4]) [nM],effect of preincubation length on activity (FluB-ht PA I38T [4]),increase in EC50 values of mutant viruses (influenza virus),increase in EC50 values with mutations at position I38 (influenza A I38 mutants),increase in EC50 values with mutations at position I38 (influenza B I38 mutants)
"O=C1c2c(O)c(=O)ccn2N([C@@H]2c3ccccc3SCc3c2ccc(F)c3F)[C@@H]2COCCN12 [BXA, baloxavir acid]",0.58 and ~0.5,approximately threefold decrease,~18,no inhibition; also recorded: not observed regardless of the order of addition,600,negligible effects; also recorded: time-independent,–,–,–
"COC(=O)OCOc1c2n(ccc1=O)N([C@@H]1c3ccccc3SCc3c1ccc(F)c3F)[C@@H]1COCCN1C2=O [BXM, Baloxavir marboxil]",–,–,–,–,–,–,up to 50 fold,up to 50 fold,up to tenfold
